{
  "source": "ChEMBL document CHEMBL1143875",
  "about": "“Synthesis and structure-activity relationships of thiadiazole-derivatives as potent and orally active peroxisome proliferator-activated receptors alpha/delta dual agonists” (Bioorg Med Chem, 2008)",
  "key": {"[1]": {"assay": "AUC in ob/ob C57BL/6J-leptin deficient obese mouse at 1 mg/kg administered as multiple dose after 11 days", "type": "ADME, organism-based", "design": "dose 1 mg/kg", "conditions": "plasma"}, "[2]": {"assay": "Inhibition of cytochrome P450 in human liver microsome", "type": "ADME, microsomes"}, "[3]": {"assay": "AUC in Beagle dog at 10 mg/kg administered as multiple dose after 7 days", "type": "ADME, organism-based, Canis lupus familiaris", "design": "dose 10 mg/kg", "conditions": "plasma"}, "[4]": {"assay": "Induction of ABCA1 gene expression in human skeletal muscle cells at 1 nM by RT-PCR", "type": "functional"}, "Mus musculus [5]": {"test_system": "Mus musculus", "assay": "Decrease in non esterified free fatty acid level i in po dosed hApoA1 transgenic mouse after 7 days", "type": "functional, organism-based"}, "[6]": {"target": "T1, Bile acid receptor (Homo sapiens) (UniProt Q96RI1)", "T1 sequence (whole entry)": "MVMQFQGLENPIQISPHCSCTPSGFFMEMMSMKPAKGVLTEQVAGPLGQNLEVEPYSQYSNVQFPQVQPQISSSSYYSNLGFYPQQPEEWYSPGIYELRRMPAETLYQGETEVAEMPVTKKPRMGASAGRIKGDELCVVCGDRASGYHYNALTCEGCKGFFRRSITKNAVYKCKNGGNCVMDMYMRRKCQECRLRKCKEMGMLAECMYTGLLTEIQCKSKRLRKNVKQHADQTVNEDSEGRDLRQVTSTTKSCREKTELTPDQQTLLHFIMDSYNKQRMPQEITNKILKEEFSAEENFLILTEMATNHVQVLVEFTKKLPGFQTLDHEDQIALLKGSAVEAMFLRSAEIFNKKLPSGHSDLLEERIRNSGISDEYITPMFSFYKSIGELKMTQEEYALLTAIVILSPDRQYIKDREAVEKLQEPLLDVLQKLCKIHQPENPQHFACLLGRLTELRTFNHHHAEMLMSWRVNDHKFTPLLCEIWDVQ", "assay": "Activity at farnesoid X receptor"}, "Canis familiaris [7]": {"test_system": "Canis familiaris", "assay": "Increase in aspartate aminotransferase level in Beagle dog serum at 10 mg/kg, po/day after 7 days", "type": "functional, Canis lupus familiaris"}, "Mus musculus [8]": {"test_system": "Mus musculus", "assay": "Increase in HDL cholesterol level in po dosed hApoA1 transgenic mouse after 7 days", "type": "functional, organism-based"}, "Canis familiaris [9]": {"test_system": "Canis familiaris", "assay": "Effect on aspartate aminotransferase level in Beagle dog serum at 0.3 to 3 mg/kg, po/day after 7 days", "type": "functional, organism-based", "conditions": "Canis lupus familiaris"}, "[10]": {"assay": "AUC in ob/ob C57BL/6J-leptin deficient obese mouse at 0.3 mg/kg administered as multiple dose after 11 days", "type": "ADME, organism-based", "design": "dose 0.3 mg/kg", "conditions": "plasma"}, "[11]": {"assay": "AUC in ob/ob C57BL/6J-leptin deficient obese mouse at 3 mg/kg administered as multiple dose after 11 days", "type": "ADME, organism-based", "design": "dose 3 mg/kg", "conditions": "plasma"}, "[12]": {"assay": "AUC in Sprague-Dawley rat at 1 mg/kg administered as multiple dose after 8 days", "type": "ADME, organism-based", "design": "dose 1 mg/kg", "conditions": "plasma"}, "[13]": {"assay": "Induction of CPT1 gene expression in human skeletal muscle cells at 1000 nM by RT-PCR", "type": "functional"}, "[14]": {"assay": "Activity at retinoic acid receptor"}, "Mus musculus [15]": {"test_system": "Mus musculus", "assay": "[…] effect of ob/ob C57BL/6J-leptin deficient obese mouse assessed as reduction in triglyceride level at 0.1 to 3 mg/kg, po after 11 days", "type": "functional", "design": "scale not given: the % may be the effect or the level left", "conditions": "dose mg/kg 0.1-3"}, "[16]": {"assay": "Half life in Beagle dog at 10 mg/kg administered as multiple dose after 7 days", "type": "ADME, organism-based, Canis lupus familiaris", "design": "dose 10 mg/kg", "conditions": "in vivo"}, "Rattus norvegicus": {"test_system": "Rattus norvegicus", "assay": "Increase in HDL cholesterol level in po dosed hypercholesterolemic Sprague-Dawley rat serum after 8 days", "type": "functional"}, "[17]": {"assay": "Half life in Sprague-Dawley rat at 1 mg/kg administered as multiple dose after 8 days", "type": "ADME, organism-based", "design": "dose 1 mg/kg", "conditions": "in vivo"}, "[18]": {"assay": "Activity at liver X receptor"}, "[19]": {"assay": "Cmax in Sprague-Dawley rat at 3 mg/kg administered as multiple dose after 8 days", "type": "ADME, organism-based", "design": "dose 3 mg/kg", "conditions": "in vivo"}, "[20]": {"assay": "Induction of Pa9 gene expression in human skeletal muscle cells at 1000 nM by RT-PCR", "type": "functional"}, "Mus musculus [21]": {"test_system": "Mus musculus", "assay": "[…] effect of ob/ob C57BL/6J-leptin deficient obese mouse assessed as reduction in serum insulin level at 0.1 to 3 mg/kg, po after 11 days", "type": "functional", "design": "scale not given: the % may be the effect or the level left", "conditions": "dose mg/kg 0.1-3"}, "[22]": {"assay": "Cmax in Beagle dog at 10 mg/kg administered as multiple dose after 7 days", "type": "ADME, organism-based, Canis lupus familiaris", "design": "dose 10 mg/kg", "conditions": "in vivo"}, "[23]": {"assay": "Activity at retinoic acid X receptor"}, "Mus musculus [24]": {"test_system": "Mus musculus", "assay": "Increase in hApoA1 level in po dosed hApoA1 transgenic mouse after 7 days", "type": "functional, organism-based"}, "Mus musculus [25]": {"test_system": "Mus musculus", "assay": "[…] effect of ob/ob C57BL/6J-leptin deficient obese mouse assessed as increase in liver weight at 0.1 to 3 mg/kg, po after 11 days", "type": "functional", "conditions": "dose mg/kg 0.1-3"}, "[26]": {"assay": "Half life in ob/ob C57BL/6J-leptin deficient obese mouse at 0.3 mg/kg administered as multiple dose after 11 days", "type": "ADME, organism-based", "design": "dose 0.3 mg/kg", "conditions": "in vivo"}, "Canis familiaris [27]": {"test_system": "Canis familiaris", "assay": "Antihyperlipidemic activity in Beagle dog serum assessed as reduction in total cholesterol level at 0.3 to 10 mg/kg, po/day after 7 days", "type": "functional, organism-based", "conditions": "Canis lupus familiaris"}, "[28]": {"assay": "AUC in Beagle dog at 3 mg/kg administered as multiple dose after 7 days", "type": "ADME, organism-based, Canis lupus familiaris", "design": "dose 3 mg/kg", "conditions": "plasma"}, "[29]": {"target": "T2, Peroxisome proliferator-activated receptor alpha (Homo sapiens) (UniProt Q07869)", "T2 sequence (whole entry)": "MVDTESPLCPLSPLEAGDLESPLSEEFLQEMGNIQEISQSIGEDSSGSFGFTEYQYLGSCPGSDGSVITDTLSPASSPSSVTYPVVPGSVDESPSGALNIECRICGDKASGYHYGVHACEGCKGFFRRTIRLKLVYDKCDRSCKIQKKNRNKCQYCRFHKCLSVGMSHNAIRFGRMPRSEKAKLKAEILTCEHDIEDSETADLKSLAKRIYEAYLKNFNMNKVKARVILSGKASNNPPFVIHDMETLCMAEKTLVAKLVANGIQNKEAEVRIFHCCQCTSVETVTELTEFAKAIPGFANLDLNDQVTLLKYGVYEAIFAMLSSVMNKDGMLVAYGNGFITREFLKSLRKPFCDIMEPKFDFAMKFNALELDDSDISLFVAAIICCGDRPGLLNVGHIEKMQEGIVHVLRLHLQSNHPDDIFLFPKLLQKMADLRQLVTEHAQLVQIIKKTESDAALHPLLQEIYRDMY", "assay": "Agonist activity at human PPARalpha-Gal4 in HEK293 cells by luciferase reporter assay relative to (S)-2-{2-[1-ethyl-3-(4-trifluoro-methoxyphenyl)ureido]indan-5-ylsulfanyl}-2-methylpropionic acid", "type": "functional, cell-based"}, "[30]": {"target": "T3, Peroxisome proliferator-activated receptor alpha (Homo sapiens, UniProt Q07869)", "T3 sequence (Q07869 whole entry)": "T2 sequence (whole entry)", "assay": "Agonist activity at human PPARalpha-Gal4 in HEK293 cells by luciferase reporter assay", "type": "functional, cell-based"}, "Canis familiaris [31]": {"test_system": "Canis familiaris", "assay": "Effect on alanine aminotransferase level in Beagle dog serum at 0.3 to 3 mg/kg, po/day after 7 days", "type": "functional, organism-based", "conditions": "Canis lupus familiaris"}, "[32]": {"assay": "Cmax in Sprague-Dawley rat at 0.1 mg/kg administered as multiple dose after 8 days", "type": "ADME, organism-based", "design": "dose 0.1 mg/kg", "conditions": "in vivo"}, "Canis familiaris [33]": {"test_system": "Canis familiaris", "assay": "Antihyperlipidemic activity in Beagle dog serum assessed as reduction in free fatty acids level at 0.3 to 10 mg/kg, po/day after 7 days", "type": "functional, organism-based", "conditions": "Canis lupus familiaris"}, "[34]": {"assay": "AUC in Sprague-Dawley rat at 3 mg/kg administered as single dose on day 8", "type": "ADME, organism-based", "design": "dose 3 mg/kg", "conditions": "plasma"}, "[35]": {"assay": "Induction of CPT1 gene expression in human skeletal muscle cells at 1 nM by RT-PCR", "type": "functional"}, "[36]": {"assay": "Half life in Sprague-Dawley rat at 3 mg/kg administered as multiple dose after 8 days", "type": "ADME, organism-based", "design": "dose 3 mg/kg", "conditions": "in vivo"}, "[37]": {"assay": "Cmax in Sprague-Dawley rat at 3 mg/kg administered as single dose on day 8", "type": "ADME, organism-based", "design": "dose 3 mg/kg", "conditions": "in vivo"}},
  "note": "Calls of active or inactive are those of the source. The rule behind the calls is not given here.",
  "data": [
    {"smiles": "Cc1cc(SCc2nc(-c3ccc(Cl)c(Cl)c3)ns2)ccc1OC(C)(C)C(=O)O", "values": [
      {"measurement": "AUC at 264 h", "setting": "[1]", "result": 47600, "unit": "ng·h/mL"},
      {"measurement": "IC50", "setting": "[2]", "result": "> 30", "unit": "µM"},
      {"measurement": "AUC at 168 h", "setting": "[3]", "result": 61600, "unit": "ng·h/mL"},
      {"measurement": "Fold change", "setting": "[4]", "result": 1.5},
      {"measurement": "Activity", "setting": "Mus musculus [5]", "result": "Active"},
      {"measurement": "Activity", "setting": "[6]", "result": "inactive"},
      {"measurement": "Fold change", "setting": "Canis familiaris [7]", "result": 1.7},
      {"measurement": "Activity", "setting": "Mus musculus [8]", "result": "Dose-dependent effect"},
      {"measurement": "Activity", "setting": "Canis familiaris [9]", "result": "inactive"},
      {"measurement": "AUC at 264 h", "setting": "[10]", "result": 10600, "unit": "ng·h/mL"},
      {"measurement": "AUC at 264 h", "setting": "[11]", "result": 249, "unit": "µg·h/mL"},
      {"measurement": "AUC at 192 h", "setting": "[12]", "result": 13900, "unit": "ng·h/mL"},
      {"measurement": "Fold change", "setting": "[13]", "result": 7.8},
      {"measurement": "Activity", "setting": "[14]", "result": "inactive"},
      {"measurement": "Activity", "setting": "Mus musculus [15]", "result": 83, "unit": "%"},
      {"measurement": "half-life", "setting": "[16]", "result": 372, "unit": "min"},
      {"measurement": "Activity", "setting": "Rattus norvegicus", "result": 45, "unit": "mg/dL"},
      {"measurement": "half-life", "setting": "[17]", "result": 342, "unit": "min"},
      {"measurement": "Activity", "setting": "[18]", "result": "inactive"},
      {"measurement": "Cmax", "setting": "[19]", "result": 2000, "unit": "ng/mL"},
      {"measurement": "Fold change", "setting": "[20]", "result": 15},
      {"measurement": "Activity", "setting": "Mus musculus [21]", "result": 50, "unit": "%"},
      {"measurement": "Cmax", "setting": "[22]", "result": 10100, "unit": "ng/mL"},
      {"measurement": "Activity", "setting": "[23]", "result": "inactive"},
      {"measurement": "Activity", "setting": "Mus musculus [24]", "result": "Dose-dependent effect"},
      {"measurement": "Activity", "setting": "Mus musculus [25]", "result": 65, "unit": "%"},
      {"measurement": "half-life", "setting": "[26]", "result": 300, "unit": "min"},
      {"measurement": "Activity", "setting": "Canis familiaris [27]", "result": "Dose-dependent effect"},
      {"measurement": "AUC at 168 h", "setting": "[28]", "result": 24100, "unit": "ng·h/mL"},
      {"measurement": "Efficacy", "setting": "[29]", "result": 56, "unit": "%"},
      {"measurement": "EC50", "setting": "[30]", "result": 100, "unit": "nM"},
      {"measurement": "Activity", "setting": "Canis familiaris [31]", "result": "inactive"},
      {"measurement": "Cmax", "setting": "[32]", "result": 82, "unit": "ng/mL"},
      {"measurement": "Activity", "setting": "Canis familiaris [33]", "result": "Dose-dependent effect"},
      {"measurement": "AUC", "setting": "[34]", "result": 24200, "unit": "ng·h/mL"},
      {"measurement": "Fold change", "setting": "[35]", "result": 3},
      {"measurement": "half-life", "setting": "[36]", "result": 426, "unit": "min"},
      {"measurement": "Cmax", "setting": "[37]", "result": 2520, "unit": "ng/mL"}
    ]}
  ]
}
